In assay [1] the target is T1, lectin from Arachis hypogaea (peanut, FITC-PNA) (Arachis hypogaea, UniProt P02872).
T1 construct: purchased EY Laboratories, San Mateo, Calif
T1 sequence (P02872 24-273): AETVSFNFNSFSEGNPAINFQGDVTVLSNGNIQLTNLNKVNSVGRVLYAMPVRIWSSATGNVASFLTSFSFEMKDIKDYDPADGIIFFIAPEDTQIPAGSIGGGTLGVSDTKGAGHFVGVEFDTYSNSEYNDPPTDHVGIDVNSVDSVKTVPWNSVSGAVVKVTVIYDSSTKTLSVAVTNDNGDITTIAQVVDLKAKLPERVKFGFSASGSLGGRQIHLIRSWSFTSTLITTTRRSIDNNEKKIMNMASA
The assay can be described thus: Fluorous carbohydrate microarray screened with FITC-labeled peanut lectin (fluorescence scan at 488 nm). Type of assay: binding. As to conditions: carbohydrates 4-11 spotted (2 mM in 80% methanol/water) on fluorinated glass slide; FITC-PNA in PBS buffer (0.5 M), 30 min. The method, then: (§1) With the fluorous-tagged carbohydrates in hand, the ability of the single C8F17 tail to anchor these mono- and disaccharides to a glass slide surface even after repeated washes was examined. The fluorous-tagged carbohydrates 4-11 were dissolved in 80% methanol/water and were spotted onto fluoroalkylsilane-derivatized glass slides employing a standard robot used for DNA arraying. The slides then were incubated for 30 minutes with the commercially available FITC (fluorescein isothiocyanate)-labeled lectins from Triticum vulgaris (wheat germ, FITC-WGA) in phosphate buffered saline (PBS buffer) (0.25 M) and Arachis hypogaea (peanut, FITC-PNA) in PBS buffer (0.5 M) and rinsed repeatedly with the assay buffer followed by distilled water. After drying, the slide was scanned with a standard fluorescent slide scanner at 488 nm to reveal the carbohydrate-binding specificities of these two lectins. As expected the wheat germ lectin WGA bound only to the fluorous-tagged N-acetylglucosamine (5). In contrast, the peanut lectin PNA bound to both galactose (7) and lactose (10) in the array experiment. This lectin is known to bind to galactose both alone and in the context of the lactose disaccharide. […]

In assay [2] the test system is lectin from Triticum vulgaris (wheat germ, FITC-WGA). The assay can be described thus: Fluorous carbohydrate microarray screened with FITC-labeled wheat germ lectin (fluorescence scan at 488 nm). Type of assay: binding. As to conditions: carbohydrates 4-11 spotted (2 mM in 80% methanol/water) on fluorinated glass slide; FITC-WGA in PBS buffer (0.25 M), 30 min; WGA bound only to this one. On the procedure:
as §1

Here are results for three compounds from patent US20060199211A1, “Fluorous-based microarrays” (priority 2005, published 2006).

Structures are written as SMILES.

Regarding `OC[C@H]1O[C@@H](O[C@H]2[C@H](O)[C@@H](O)[C@H](OCCCCOCCCC(F)(F)C(F)(F)C(F)(F)C(F)(F)C(F)(F)C(F)(F)C(F)(F)C(F)(F)F)O[C@@H]2CO)[C@H](O)[C@@H](O)[C@H]1O` [Compound 10], the “binding of peanut lectin PNA to arrayed fluorous-tagged carbohydrate” value in assay [1] is “bound”. Take `CC(=O)N[C@H]1[C@H](OCCCCOCCCC(F)(F)C(F)(F)C(F)(F)C(F)(F)C(F)(F)C(F)(F)C(F)(F)C(F)(F)F)O[C@H](CO)[C@@H](O)[C@@H]1O` [Compound 5, 3-(perfluorooctyl)propanyloxybutanyl-2-deoxy-2-acylamino-β-D-glucopyranoside]: in assay [2], the “binding of wheat germ lectin WGA to arrayed fluorous-tagged carbohydrate” value is “bound”. With `OC[C@H]1O[C@@H](OCCCCOCCCC(F)(F)C(F)(F)C(F)(F)C(F)(F)C(F)(F)C(F)(F)C(F)(F)C(F)(F)F)[C@H](O)[C@@H](O)[C@H]1O` [Compound 7], in assay [1], the “binding of peanut lectin PNA to arrayed fluorous-tagged carbohydrate” value is “bound”.
